One molecule from paper PMC5470052, “Brain Activation by H1 Antihistamines Challenges Conventional View of Their Mechanism of Action in Motion Sickness: A Behavioral, c-Fos and Physiological Study in Suncus murinus (House Musk Shrew)” (Frontiers in Physiology, 2017) can be followed below.

The assay concerns T1, histamine H1 receptor.
T1 construct: gene HRH1; native receptor in isolated ileal segments
Description: organ bath, antagonism of histamine-induced contraction of isolated ileum; double reciprocal analysis. Also noted: species or system Suncus murinus.

Turning to `O=C(O)COCCN1CCN(C(c2ccccc2)c2ccc(Cl)cc2)CC1` (stereo not shown) [cetirizine], the Kb is listed as 8.4 pKb.
